Measured values from PMC5285354, “Cationic Net Charge and Counter Ion Type as Antimicrobial Activity Determinant Factors of Short Lipopeptides” (Frontiers in Microbiology, 2017).
≈ marks a conversion by molar mass, not a printed value. Where two headings read alike, the source gives them in different places. Where a SMILES comes first, the peptide text is derived from it. The star is where a group is joined. Decanoyl = CCCCCCCCCC(=O)*; Octanoyl = CCCCCCCC(=O)*

How the values were obtained:
Format in all cases: cell-based
[1] = test system: Aspergillus brasiliensis (ATCC 16404); details: ATCC 16404, 48 h
Procedure: (§1) The minimum inhibitory concentration (MIC), minimum bactericidal concentration (MBC) and minimum fungicidal concentration (MFC) were determined according to the procedure recommended by the Clinical Laboratory Standards Institute (CLSI). The following reference strains were tested: Gram-negative E. coli (ATCC 25922), K. pneumoniae (ATCC 700603), P. vulgaris (PCM 2668), P. aeruginosa (ATCC 9027), Gram-positive S. aureus (ATCC 25923), S. epidermidis (PCM 2118), B. subtilis (ATCC 6633), E. faecalis (ATCC 29212) and fungi C. albicans (ATCC 10231), C. tropicalis (PCM 2681), and A. brasiliensis (ATCC 16404). All the microorganisms were from the Polish Collection of Microorganisms (Wroclaw, Poland). MIC was determined using a microbroth dilution method with Mueller-Hinton (MH) broth for bacteria and Sabouraud Dextrose broth for fungi (Becton Dickinson, Le Pont de Claix, France). An initial inoculum of 10^5 cfu/mL was used for bacteria and 10^3 cfu/mL for fungi. Polypropylene 96-well plates (Kartell, Noviglio, Italy) were incubated for 18 h at 37°C for bacteria and for 48 h at 25°C for the tested fungi. MIC (μg/mL) was taken as the lowest concentration of the lipopeptide, at which the observable growth was inhibited. […] The experiments were performed in triplicate on three different days.

[2] = test system: Bacillus subtilis (ATCC 6633)
Procedure: as §1

[3] = test system: Candida albicans (ATCC 10231); details: ATCC 10231, 48 h
Procedure: as §1

[4] = test system: Candida tropicalis (PCM 2681); details: PCM 2681, 48 h
Procedure: as §1

[5] = test system: Enterococcus faecalis (ATCC 29212); details: for MBC Enterococcus fecalis: subculture on Mueller-Hinton II Agar, 24 h 37°C
Procedure: as §1

[6] = test system: Escherichia coli (ATCC 25922); details: ATCC 25922, TFA salt, triplicate; for MIC Escherichia coli: Mueller-Hinton broth, 10^5 cfu/mL, 18 h 37°C; for MBC Escherichia coli: subculture on Mueller-Hinton II Agar, 24 h 37°C
Procedure: as §1

[7] = test system: Klebsiella pneumoniae (ATCC 700603)
Procedure: as §1

[8] = test system: Proteus vulgaris (PCM 2668); details: PCM 2668, TFA salt, triplicate; for MIC Proteus vulgaris: Mueller-Hinton broth, 10^5 cfu/mL, 18 h 37°C; for MBC Proteus vulgaris: subculture on Mueller-Hinton II Agar, 24 h 37°C
Procedure: as §1

[9] = test system: Pseudomonas aeruginosa (ATCC 9027); details: for MBC Pseudomonas aeruginosa: subculture on Mueller-Hinton II Agar, 24 h 37°C
Procedure: as §1

[10] = test system: Staphylococcus aureus (ATCC 25923); details: ATCC 25923, TFA salt; for MBC Staphylococcus aureus: MIC wells subcultured on Mueller-Hinton II Agar, 24 h 37°C, triplicate; for MIC Staphylococcus aureus: Mueller-Hinton broth, 10^5 cfu/mL, 18 h 37°C, triplicate on three days
Procedure: as §1

[11] = test system: Staphylococcus epidermidis (PCM 2118)
Procedure: as §1

[12] = test system: Pseudomonas aeruginosa (ATCC 9027); details: ATCC 9027, 24 h
[13] = ATCC 29212, TFA salt, triplicate
[14] = ATCC 6633, TFA salt, Mueller-Hinton broth, 10^5 cfu/mL, 18 h 37°C, triplicate
[15] = ATCC 6633, TFA salt, subculture on Mueller-Hinton II Agar, 24 h 37°C, triplicate
[16] = ATCC 29212, TFA salt, Mueller-Hinton broth, 10^5 cfu/mL, 18 h 37°C, triplicate
[17] = ATCC 700603, TFA salt, Mueller-Hinton broth, 10^5 cfu/mL, 18 h 37°C, triplicate
[18] = ATCC 700603, TFA salt, subculture on Mueller-Hinton II Agar, 24 h 37°C, triplicate
[19] = ATCC 9027, TFA salt, Mueller-Hinton broth, 10^5 cfu/mL, 18 h 37°C, triplicate
[20] = ATCC 9027, TFA salt, triplicate
[21] = PCM 2118, TFA salt, Mueller-Hinton broth, 10^5 cfu/mL, 18 h 37°C, triplicate
[22] = PCM 2118, TFA salt, subculture on Mueller-Hinton II Agar, 24 h 37°C, triplicate

Compound | MFC Aspergillus brasiliensis [1] [µg/mL] | MIC Aspergillus brasiliensis [1] [µg/mL] | MFC Candida albicans [3] [µg/mL] | MIC Candida albicans [3] [µg/mL] | MFC Candida tropicalis [4] [µg/mL] | MIC Candida tropicalis [4] [µg/mL] | MBC Enterococcus fecalis [5, 13] [µg/mL] | MIC Escherichia coli [6] [µg/mL] | MBC Escherichia coli [6] [µg/mL] | MIC Proteus vulgaris [8] [µg/mL] | MBC Proteus vulgaris [8] [µg/mL] | MBC Staphylococcus aureus [10] [µg/mL] | MIC Staphylococcus aureus [10] [µg/mL] | MIC Bacillus subtillis [2, 14] [µg/mL] | MBC Bacillus subtillis [2, 15] [µg/mL] | MIC Klebsiella pneumoniae [7, 17] [µg/mL] | MBC Klebsiella pneumoniae [7, 18] [µg/mL] | MIC Pseudomonas aeruginosa [9, 19] [µg/mL] | MBC Pseudomonas aeruginosa [9, 20] [µg/mL] | MIC Staphylococcus epidermidis [11, 21] [µg/mL] | also measured
CCCCCCCCCC(=O)N[C@@H](CCCCN)C(=O)NCC(=O)N[C@@H](CCCCN)C(=O)NCC(N)=O [C10-KGKG-NH2] (Decanoyl-KGKG-NH2) | 2000 (≈ 3.69 mM) | 1000 (≈ 1.85 mM) | 2000 (≈ 3.69 mM) | 1000 (≈ 1.85 mM) | 2000 (≈ 3.69 mM) | 512 (≈ 0.945 mM) | >2000 | >2000 | >2000 | >2000 | >2000 | >2000 | >2000 | – | – | – | – | – | – | – | MIC Bacillus subtillis ([2]; ATCC 6633, 18 h): 512 µg/mL (≈ 0.945 mM); MBC Bacillus subtillis ([2]; ATCC 6633, 24 h): 1000 µg/mL (≈ 1.85 mM); MIC Enterococcus fecalis ([5]; ATCC 29212, 18 h): 2000 µg/mL (≈ 3.69 mM); MIC Klebsiella pneumoniae ([7]; ATCC 700603, 18 h): 2000 µg/mL (≈ 3.69 mM); MBC Klebsiella pneumoniae ([7]; ATCC 700603, 24 h): 2000 µg/mL (≈ 3.69 mM); MIC Pseudomonas aeruginosa ([9]; ATCC 9027, 18 h): 1000 µg/mL (≈ 1.85 mM); MIC Staphylococcus epidermidis ([11]; PCM 2118, 18 h): 512 µg/mL (≈ 0.945 mM); MBC Staphylococcus epidermidis ([11]; PCM 2118, 24 h): 512 µg/mL (≈ 0.945 mM); MBC Pseudomonas aeruginosa [12]: 2000 µg/mL (≈ 3.69 mM)
CCCCCCCC(=O)N[C@@H](CCCCN)C(N)=O [C8-K-NH2] | 1000 (≈ 3.68 mM) | 1000 (≈ 3.68 mM) | 1000 (≈ 3.68 mM) | 1000 (≈ 3.68 mM) | 2000 (≈ 7.37 mM) | 1000 (≈ 3.68 mM) | >1000 | >1000 | >1000 | >2000 | >2000 | >1000 | >1000 | >1000 | >1000 | >1000 | >1000 | >2000 | >2000 | >1000 | MIC Enterococcus fecalis [5, 16]: >1000 µg/mL; MBC Staphylococcus epidermidis [11, 22]: >1000 µg/mL
CCCCCCCC(=O)N[C@@H](CCCCN)C(=O)N[C@@H](CCCCN)C(=O)N[C@@H](CCCCN)C(=O)N[C@@H](CCCCN)C(N)=O [C8-KKKK-NH2] (Octanoyl-KKKK-NH2) | 2000 (≈ 3.05 mM) | 2000 (≈ 3.05 mM) | 2000 (≈ 3.05 mM) | 2000 (≈ 3.05 mM) | 2000 (≈ 3.05 mM) | 2000 (≈ 3.05 mM) | >2000 | >1000 | >1000 | >2000 | >2000 | >2000 | >2000 | >2000 | >2000 | >2000 | >2000 | >2000 | >2000 | >2000 | MIC Enterococcus fecalis ([5]; ATCC 29212, 18 h): 2000 µg/mL (≈ 3.05 mM); MBC Staphylococcus epidermidis [11, 22]: >2000 µg/mL
CCCCCCCC(=O)N[C@@H](CCCCN)C(=O)N[C@@H](CCCCN)C(N)=O [C8-KK-NH2] | 1000 (≈ 2.5 mM) | 1000 (≈ 2.5 mM) | 1000 (≈ 2.5 mM) | 1000 (≈ 2.5 mM) | 1000 (≈ 2.5 mM) | 1000 (≈ 2.5 mM) | >1000 | >1000 | >1000 | >2000 | >2000 | >1000 | >1000 | >1000 | >1000 | >1000 | >1000 | >2000 | >2000 | >1000 | MIC Enterococcus fecalis [5, 16]: >1000 µg/mL; MBC Staphylococcus epidermidis [11, 22]: >1000 µg/mL
CCCCCCCC(=O)N[C@@H](CCCCN)C(=O)NCC(=O)N[C@@H](CCCCN)C(=O)NCC(N)=O [C8-KGKG-NH2] (Octanoyl-KGKG-NH2) | 2000 (≈ 3.89 mM) | 2000 (≈ 3.89 mM) | 2000 (≈ 3.89 mM) | 2000 (≈ 3.89 mM) | 2000 (≈ 3.89 mM) | 2000 (≈ 3.89 mM) | >2000 | >2000 | >2000 | >2000 | >2000 | >2000 | >2000 | >2000 | >2000 | >2000 | >2000 | >2000 | >2000 | >2000 | MIC Enterococcus fecalis [5, 16]: >2000 µg/mL; MBC Staphylococcus epidermidis [11, 22]: >2000 µg/mL
